{"source": "paper PMC12622905", "about": "“CYP71D8 and CYP82A2 catalyze the last committed step in biosynthesis of glyceollin isomers in soybean” (Plant Biotechnology, 2025)", "molecules": {"B1": {"name": "CYP71D8 (GS1, glyceollin I synthase) (Glycine max) (protein)", "chain": "MEYSPLSIVITFFVFLLLHWLVKTYKQKSSHKLPPGPWRLPIIGNLHQLALAASLPDQALQKLVRKYGPLMHLQLGEISTLVVSSPKMAMEMMKTHDVHFVQRPQLLAPQFMVYGATDIAFAPYGDYWRQIRKICTLELLSAKRVQSFSHIRQDENKKLIQSIHSSAGSPIDLSGKLFSLLGTTVSRAAFGKENDDQDEFMSLVRKAITMTGGFEVDDMFPSLKPLHLLTRQKAKVEHVHQRADKILEDILRKHMEKRTRVKEGNGSEAEQEDLVDVLLRLKESGSLEVPMTMENIKAVIWNIFAAGTDTSASTLEWAMSEMMKNPKVKEKAQAELRQIFKGKEIIRETDLEELSYLKSVIKETLRLHPPSQLIPRECIISTNIDGYEIPIKTKVMINTWAIGRDPQYWSDADRFIPERFNDSSIDFKGNSFEYIPFGAGRRMCPGMTFGLASITLPLALLLYHFNWELPNKMKPEDLDMDEHFGMTVARKNKLFLIPTVYEAS", "notes": "full ORF in pYES2.1 TOPO; yeast BJ2168 microsomes co-expressing Lotus japonicus CPR"}, "B2": {"name": "CYP82A2 (GS3, glyceollin III synthase) (Glycine max) (protein)", "chain": "MELVLNSTTIGVGVVSLILLLYLFLRGGSWKSGEEGPPTVAGAWPIIGHLPLLLGSKTPHKTLGDLADKYGPIFSIKIGAKNAVVVSNWEMAKECYTTNDIAVSSLPDLISANLLCYNRSMIVVAPYGPYWRQLRKILMSEFLSPSRVEQLHHVRVSEVQSSITELFRDWRSNKNVQSGFATVELKQWFSLLVFNMILRMVCGKRYFSASTSDDEKANRCVKAVDEFVRLAATFTVGDAIPYLRWFDFGGYENDMRETGKELDEIIGEWLDEHRQKRKMGENVQDLMSVLLSLLEGKTIEGMNVDIVIKSFVLTVIQAGTEASITTLIWATSLILNNPSVLEKLKAELDIQVGKERYICESDLSKLTYLQAVVKETLRLYPPAPLSRPREFEEDCTIGGYTVKKGTRLITNLSKIHTDHNVWSNPLEFKPERFLTTDKDIDMKGQHFQLLPFGGGRRICPGINLGLQTVRLTLASFLHSFEILNPSTEPLDMTEVFRATNTKATPLEILIKPRLSPSCYESI", "notes": "as for B1"}}, "key": {"CYP82A24": {"biological_target": "T1, CYP82A24 (Glycine max, UniProt I1MI36)", "T1 construct": "gene LOC100782866; synthetic gene in pYES2 (BamHI site); recombinant yeast BJ2168 microsomes with Lotus japonicus CPR", "T1 sequence (I1MI36 1-521)": "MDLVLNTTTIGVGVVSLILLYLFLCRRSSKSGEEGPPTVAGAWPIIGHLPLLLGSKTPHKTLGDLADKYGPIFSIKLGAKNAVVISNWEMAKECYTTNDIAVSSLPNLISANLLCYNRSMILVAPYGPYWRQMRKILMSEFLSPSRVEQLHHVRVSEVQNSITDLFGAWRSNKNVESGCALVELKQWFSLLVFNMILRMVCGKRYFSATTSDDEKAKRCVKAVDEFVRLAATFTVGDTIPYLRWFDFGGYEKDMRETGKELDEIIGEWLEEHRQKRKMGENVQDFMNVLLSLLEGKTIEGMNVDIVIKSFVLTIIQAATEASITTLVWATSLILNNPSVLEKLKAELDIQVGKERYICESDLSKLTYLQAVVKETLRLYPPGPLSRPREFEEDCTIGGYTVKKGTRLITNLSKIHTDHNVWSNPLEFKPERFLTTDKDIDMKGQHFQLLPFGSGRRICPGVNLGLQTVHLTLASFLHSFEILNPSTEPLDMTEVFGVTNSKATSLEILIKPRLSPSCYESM", "test": "HPLC of glyceollin III formation, recombinant yeast microsomes", "type": "biochemical", "conditions": "NADPH; potassium phosphate pH 7.5; 30°C"}, "CYP71D106": {"biological_target": "T2, CYP71D106 (Glycine max, UniProt K7K4H7)", "T2 construct": "gene LOC100817439; synthetic gene in pYES2 (BamHI site); recombinant yeast BJ2168 microsomes with Lotus japonicus CPR", "T2 sequence (K7K4H7 1-503)": "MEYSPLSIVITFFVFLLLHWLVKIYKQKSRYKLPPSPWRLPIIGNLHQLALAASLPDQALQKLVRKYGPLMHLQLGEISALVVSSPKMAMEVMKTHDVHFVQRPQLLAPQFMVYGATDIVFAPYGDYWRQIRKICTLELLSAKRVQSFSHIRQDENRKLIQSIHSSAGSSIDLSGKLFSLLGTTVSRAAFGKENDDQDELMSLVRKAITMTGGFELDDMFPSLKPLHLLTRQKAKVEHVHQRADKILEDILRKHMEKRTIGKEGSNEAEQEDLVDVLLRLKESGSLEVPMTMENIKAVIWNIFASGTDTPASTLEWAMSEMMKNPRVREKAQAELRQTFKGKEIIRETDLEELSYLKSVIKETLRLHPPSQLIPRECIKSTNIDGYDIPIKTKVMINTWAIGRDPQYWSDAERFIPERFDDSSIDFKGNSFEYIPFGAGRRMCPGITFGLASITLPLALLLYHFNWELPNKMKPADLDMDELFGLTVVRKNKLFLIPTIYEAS", "test": "HPLC of glyceollin I formation, recombinant yeast microsomes", "type": "biochemical", "conditions": "NADPH; potassium phosphate pH 7.5; 30°C, 5 h"}, "CYP71D145": {"biological_target": "T3, CYP71D145 (Glycine max, UniProt A0A0R0HDK6)", "T3 construct": "gene GLYMA_11G062500; full ORF in pYES2.1 TOPO; recombinant yeast BJ2168 microsomes with Lotus japonicus CPR", "T3 sequence (A0A0R0HDK6 1-505)": "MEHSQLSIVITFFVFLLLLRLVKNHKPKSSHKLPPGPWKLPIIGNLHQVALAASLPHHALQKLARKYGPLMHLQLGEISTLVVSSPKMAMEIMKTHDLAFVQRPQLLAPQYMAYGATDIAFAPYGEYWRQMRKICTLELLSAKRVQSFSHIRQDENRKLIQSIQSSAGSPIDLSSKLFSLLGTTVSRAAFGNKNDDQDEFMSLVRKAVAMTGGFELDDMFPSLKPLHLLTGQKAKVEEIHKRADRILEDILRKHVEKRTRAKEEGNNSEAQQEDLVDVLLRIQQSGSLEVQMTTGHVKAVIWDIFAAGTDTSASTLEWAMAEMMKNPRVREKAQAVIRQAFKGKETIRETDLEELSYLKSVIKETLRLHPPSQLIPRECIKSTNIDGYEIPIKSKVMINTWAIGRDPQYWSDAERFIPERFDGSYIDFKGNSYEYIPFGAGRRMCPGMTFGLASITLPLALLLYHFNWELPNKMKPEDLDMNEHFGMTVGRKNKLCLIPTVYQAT", "test": "HPLC of glyceollin I formation, recombinant yeast microsomes", "type": "biochemical", "conditions": "NADPH; potassium phosphate pH 7.5; 30°C, 5 h"}, "[1]": {"substrate": "CC(C)=CCc1c(O)ccc2c1OC[C@@]1(O)c3ccc(O)cc3O[C@@H]21", "test": "HPLC of glyceollin I formation, recombinant yeast microsomes, Michaelis-Menten fit", "type": "biochemical, Glycine max", "conditions": "2 mM NADPH, 0.1 M potassium phosphate pH 7.5, 10% sucrose, 14 mM 2-mercaptoethanol, 30°C, 20 min"}, "[2]": {"substrate": "CC(C)=CCc1cc2c(cc1O)OC[C@@]1(O)c3ccc(O)cc3O[C@@H]21", "test": "HPLC of glyceollin III formation, recombinant yeast microsomes, Michaelis-Menten fit", "type": "biochemical, Glycine max", "conditions": "2 mM NADPH, 0.1 M potassium phosphate pH 7.5, 10% sucrose, 14 mM 2-mercaptoethanol, 30°C, 20 min"}}}
{"molecule": "CC(C)=CCc1cc2c(cc1O)OC[C@@]1(O)c3ccc(O)cc3O[C@@H]21", "note": "[2DG, 2-dimethylallylglycinol]", "values": [{"measurement": "HPLC of glyceollin III formation, recombinant yeast microsomes", "setting": "CYP82A24", "value": "CYP82A24 also exhibited GS3 activity with 2-dimethylallylglycinol"}]}
{"molecule": "CC(C)=CCc1c(O)ccc2c1OC[C@@]1(O)c3ccc(O)cc3O[C@@H]21", "note": "[4DG, 4-dimethylallylglycinol]", "values": [{"measurement": "HPLC of glyceollin I formation, recombinant yeast microsomes", "setting": "CYP71D106", "value": "CYP71D106 yielded glyceollin I and two other unknown compounds (P1 and P2)"}, {"measurement": "HPLC of glyceollin I formation, recombinant yeast microsomes", "setting": "CYP71D145", "value": "CYP71D145 produced only glyceollin I in the enzyme assay"}]}
{"molecule": "B1", "values": [{"measurement": "Km", "setting": "[1]", "value": "1.3 ± 0.2", "unit": "µM"}]}
{"molecule": "B2", "values": [{"measurement": "Km", "setting": "[2]", "value": "9.5 ± 1.0", "unit": "µM"}]}
